Where two headings read alike, the source gives them in different places.
Tests used:
[1] = target: T1, aldose reductase (AR) (Rattus norvegicus, UniProt P07943); experiment: Aldose reductase (AR) inhibitory activity, rat lens homogenate, decrease of β-NADPH absorption at 340 nm; format: biochemical, Sprague-Dawley rats
T1 construct: The rat lenses were homogenized in 0.1 M sodium phosphate buffer (pH 6.2) and centrifuged; from tissue; host or cells: lens of Sprague-Dawley rats (homogenate supernatant)
Description: Rat lenses (one lens per 0.5 mL sodium buffer) were obtained from Sprague-Dawley rats (weighing 250~280 g). The rat lenses were homogenized in 0.1 M sodium phosphate buffer (pH 6.2) and centrifuged at 10,000 rpm (4°C, 20 min). After centrifugation, the supernatant was used as an enzyme. AR activity was spectrophotometrically determined by measuring the decrease in the absorption of β-NADPH at 340 nm for a 4 min period using DL-glyceraldehydes as substrates. The assay mixture contained 1.6 mM β-NADPH, 0.1 M potassium phosphate buffer (pH 7.0), AR homogenate, 4 M ammonium sulfate, 0.025 M DL-glyceraldehyde, and the sample in 100% DMSO. The total volume of the assay mixture was 0.3 mL and the reaction was performed in a 96-well plate. 3,3′-Tetramethylene glutaric acid (TMG), a typical AR inhibitor, was used as a positive control.
(§1) Inhibition (%): (Ac − As/Ac) × 100. In AR inhibition activity, Ac is absorbance of control and As is absorbance of samples. In AGEs formation inhibition activity, Ac is fluorescence of control and As is fluorescence of samples. […] IC50 values were calculated from the least-squares regression line of the log of concentration plotted against residual activity. All assays were performed in triplicate. Data was presented as mean ± standard deviation (SD).

[2] = tested on: advanced glycation endproducts (AGEs) formation; experiment: AGEs formation inhibitory activity, bovine serum albumin with fructose and glucose, fluorescence; format: biochemical; conditions: for IC50: ND = not detected
Description: Inhibition of AGEs formation was determined by an assay containing bovine serum albumin (10 mg/mL) in 50 mM phosphate buffer (pH 7.4) with 0.02% sodium azide, to which 0.4 M fructose and glucose was added. The assay mixture was incubated at 60°C for 2 days. After incubating, the reaction was measured on Fluorescence in a 96-black-well plate (excitation wavelength 350 nm, emission wavelength 450 nm). Aminoguaidine (AG) was used as a positive control.
as §1

[3] = tested on: AR; set-up: method as in PMID 21092751, PMID 18379080; conditions: previous literature ref 24, 38; cited from earlier work
[4] = rat lens AR, DL-glyceraldehyde substrate, mean ± SD, triplicate, read-out: IC50 AR
[5] = BSA 10 mg/mL, 0.4 M fructose and glucose, 60°C, 2 days, mean ± SD

Compound	IC50 [1, 4]	IC50 [2, 5]	also measured
COc1cc(-c2cc(=O)c3c(O)c(OC)c(O)cc3o2)ccc1O [Compound 5, jaceosidin]	111 ± 9.89 µM	170 ± 16.4 µM	
COc1c(O)cc2oc(-c3ccc(O)c(O)c3)c(OC3OC(CO)C(O)C(O)C3O)c(=O)c2c1O (centres unmarked) [Compound 8, patuletin-3-O-glucoside]	3.19 ± 0.1 µM	197 ± 11 µM	
COc1cc(O)c2c(=O)cc(-c3ccc(O)cc3)oc2c1 [Compound 3, genkwanin]	> 200 µM	312 ± 11.3 µM	
O=C(/C=C/c1ccc(O)c(O)c1)OC1CC(O)(C(=O)O)CC(O)C1O (centres unmarked) [Compound 12, 3-O-caffeoylquinic acid]	4.54 ± 0.16 µM	176 ± 5.77 µM	
O=C(/C=C/c1ccc(O)c(O)c1)OC1CC(O)(C(=O)O)CC(OC(=O)/C=C/c2ccc(O)c(O)c2)C1O (centres unmarked) [Compound 15, 3,5-di-O-caffeoylquinic acid]		31.8 ± 0.56 µM	
N=C(N)NN [AG, Aminoguaidine, reference compound]		415 ± 5.96 µM	IC50 AGEs formation ([2]; BSA 10 mg/mL, 0.4 M fructose and glucose, 60°C, 2 days, extract and fractions, mean ± SD): 45.85 ± 7.17^∗∗ μg/ml
O=C(O)/C=C/c1ccc(O)c(O)c1 [caffeic acid]			inhibitory activity on AR (in words) [3]: no inhibitory activity
COC(=O)C1(O)CC(OC(=O)/C=C/c2ccc(O)c(O)c2)C(O)C(OC(=O)/C=C/c2ccc(O)c(O)c2)C1 (centres unmarked) [Compound 16, 3,5-di-O-caffeoylquinic acid methyl ester]	1.48 ± 0.04 µM	44.5 ± 4.86 µM	
COc1cc2ccc(=O)oc2cc1O[C@@H]1O[C@H](CO)[C@@H](O)[C@H](O)[C@H]1O [Compound 2, scopolin]	131.37 ± 0.12 µM	82.4 ± 1.52 µM	
C[C@@H]1O[C@@H](OC[C@H]2O[C@@H](Oc3c(-c4ccc(O)c(O)c4)oc4cc(O)cc(O)c4c3=O)[C@H](O)[C@@H](O)[C@@H]2O)[C@H](O)[C@H](O)[C@H]1O [Compound 11, rutin]	12.5 ± 0.2 µM	129 ± 4.01 µM	
O=C(/C=C/c1ccc(O)c(O)c1)OC1CC(OC(=O)/C=C/c2ccc(O)c(O)c2)(C(=O)O)CC(O)C1O (centres unmarked) [Compound 13, 1,3-di-O-caffeoylquinic acid]	0.22 ± 0.01 µM	24.9 ± 1.86 µM	inhibition of AR (in words) ([1]; rat lens AR): strongest inhibition
O=c1c(O[C@@H]2O[C@H](CO)[C@@H](O)[C@H](O)[C@H]2O)c(-c2ccc(O)c(O)c2)oc2cc(O)cc(O)c12 [Compound 9, isoquercetin]	3.32 ± 0.21 µM	67.4 ± 9.95 µM	
CC1(C)C(=O)CCC2(C)C3CCC4CC3(CCC12)CC4(O)COC1OC(CO)C(O)C(O)C1O (centres unmarked) [Compound 19, sugeroside]	> 200 µM		
CC1(C)C(O)CCC2(C)C3CCC4CC3(CCC12)CC4(O)COC1OC(CO)C(O)C(O)C1O (centres unmarked) [Compound 17, iwayoside A]	> 200 µM		
COc1cc(OC2OC(CO)C(O)C(O)C2O)cc(O)c1C(C)=O [Compound 20, 2,4-dihydroxy-6-methoxyacetophenone 4-O-β-D-glucopyranoside]	> 200 µM	1049 ± 0.11 µM	inhibition of AGEs formation (in words) ([2]; BSA/fructose/glucose): only slight inhibition
O=C(O)CC1(CC(=O)O)CCCC1 [TMG, 3,3′-Tetramethylene glutaric acid, reference compound]	6.58 ± 0.19 µM		IC50 AR ([1]; rat lens AR, DL-glyceraldehyde substrate, extract and fractions, mean ± SD, triplicate): 1.22 ± 0.03^∗ μg/ml
CC1(C)C(O)CCC2(C)C3CCC4CC3(CCC12)CC4(O)COC1OC(CO)C(O)C(O)C1O (centres unmarked) [Compound 18, suavioside A]	> 200 µM		
COc1cc2ccc(=O)oc2cc1O [Compound 1, scopoletin]	90.4 ± 1.91 µM	20.7 ± 1.38 µM	inhibition of AR (in words) ([1]; rat lens AR): minor inhibition
COc1c(O)cc2oc(-c3ccc(O)cc3)cc(=O)c2c1O [Compound 4, hispidulin]		185.6 ± 0.2 µM	IC50 [1]: 2.93 ± 0.11 µM
O=C(/C=C/c1ccc(O)c(O)c1)OC1CC(O)(C(=O)O)CC(O)C1OC(=O)/C=C/c1ccc(O)c(O)c1 (centres unmarked) [Compound 14, 3,4-di-O-caffeoylquinic acid]	1.9 ± 0.01 µM	124 ± 4.25 µM	

Reference: paper PMC5420417, “Inhibitory Effect of Chemical Constituents Isolated from Artemisia iwayomogi on Polyol Pathway and Simultaneous Quantification of Major Bioactive Compounds” (BioMed Research International, 2017)
